From patent US8129355B2, “Ketone ligands for modulating the expression of exogenous genes via an ecdysone receptor complex” (priority 2002, dated 2012)

Experiments:
[1] = molecular target: T1, GAL4 DBD (1-147)-CfEcR(DEF)/VP16AD-βRXREF-LmUSPEF (Choristoneura fumiferana, UniProt O77240); test: 27-63 assay: luciferase reporter gene expression in stable CHO cell clone 27-63; settings: for 27-63 Rel Max FI: maximum fold induction at any concentration relative to that of GS-E ligand; for CC50: read-out: 27-63 LC50, average, dose response, three-parameter logistic model; for Fold Induction Average, 27-63 Assay (33 μM): single dose 33 μM, RLU ligand treated / RLU DMSO treated cells; for fold induction at 33 µM: CHO, read-out: Fold Induction Average, 27-63 Assay (33 μM)
T1 sequence (O77240 191-513): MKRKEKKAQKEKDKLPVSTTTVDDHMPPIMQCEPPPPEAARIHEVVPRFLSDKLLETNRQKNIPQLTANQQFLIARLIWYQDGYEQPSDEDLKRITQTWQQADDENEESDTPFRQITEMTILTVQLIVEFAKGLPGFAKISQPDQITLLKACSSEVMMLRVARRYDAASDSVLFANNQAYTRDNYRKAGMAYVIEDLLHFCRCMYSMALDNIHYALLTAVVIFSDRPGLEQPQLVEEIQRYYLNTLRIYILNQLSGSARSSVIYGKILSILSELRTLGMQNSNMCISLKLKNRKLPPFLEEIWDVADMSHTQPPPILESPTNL
T1 sequence (P28702 296-455 partner limits assumed): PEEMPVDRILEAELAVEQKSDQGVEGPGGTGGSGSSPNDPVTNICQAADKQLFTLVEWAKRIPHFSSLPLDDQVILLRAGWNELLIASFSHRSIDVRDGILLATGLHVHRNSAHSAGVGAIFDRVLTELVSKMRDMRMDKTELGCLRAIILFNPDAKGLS
Outline: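 CHO clone stably expressing GAL4 DBD-CfEcR(DEF) and VP16AD-HsRXRβ/LmUSP EF chimera plus a 5XGAL4RE-luciferase reporter; ligands given at 8 concentrations (33 μM to 0.01 μM), luminescence read 48 h after treatment. Fold induction versus DMSO cells; BC50 from three-parameter logistic fit.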

[2] = molecular target: T2, Gal4 DBD/AaEcR (DEF) with VP16-βRXR-E (Aedes aegypti, UniProt P49880); test: cell-based; format: cell-based; settings: for LC50 (half-maximal ligand concentration for reporter induction): average, dose response 33 μM to 0.01 μM, three-parameter logistic model, read-out: AA_3T3 LC50; for AA_3T3 Rel Max FI: maximum fold induction at any concentration relative to that of GS-E ligand; for Fold Induction Average, AA_3T3 Assay (33 μM): single dose 33 μM, RLU ligand treated / RLU DMSO treated cells
T2 construct: The wildtype D, E, and F domains from mosquito Aedes aegypti EcR (“AaEcR-DEF”); expressed in transfected cells; host or cells: 3T3 cells, transient transfection (Superfect)
T2 sequence (P28704 286-520 A311G/G315S/G445S/I449V): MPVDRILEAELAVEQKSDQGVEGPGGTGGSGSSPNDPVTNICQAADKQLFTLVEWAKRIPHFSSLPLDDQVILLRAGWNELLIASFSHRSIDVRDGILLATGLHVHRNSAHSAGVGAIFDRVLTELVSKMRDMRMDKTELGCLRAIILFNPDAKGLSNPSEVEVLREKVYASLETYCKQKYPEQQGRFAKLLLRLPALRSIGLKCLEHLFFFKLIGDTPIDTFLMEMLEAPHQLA
T2 sequence (P49880 405-776): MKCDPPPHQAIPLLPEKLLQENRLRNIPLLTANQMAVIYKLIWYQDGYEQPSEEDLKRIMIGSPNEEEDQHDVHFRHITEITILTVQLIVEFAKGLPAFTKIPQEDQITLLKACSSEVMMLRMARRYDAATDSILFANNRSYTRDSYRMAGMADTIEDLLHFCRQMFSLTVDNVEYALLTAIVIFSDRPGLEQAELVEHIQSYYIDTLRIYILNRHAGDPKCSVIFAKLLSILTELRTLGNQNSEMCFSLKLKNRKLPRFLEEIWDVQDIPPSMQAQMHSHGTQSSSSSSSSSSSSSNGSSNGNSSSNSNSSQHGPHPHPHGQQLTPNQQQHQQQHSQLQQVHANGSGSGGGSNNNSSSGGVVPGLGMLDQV
Experimental: 3T3 cells were trypsinized and plated at 2.5×10^3 cells/well on a 96-well plate. After incubation for 24 h at 37° C. under 5% CO2, cells were transfected with the Gal4 DBD/AaEcR (DEF) gene expression cassette and the reporter plasmid, pFRLuc, containing a 5XGAL4 response element and the firefly luciferase gene in serum free media using Superfect (Qiagen). After transfection for 4 h at 37° C., the cells were treated with ligand in serum media. […] Single dose testing was performed at 33 μM.

SMILES	27-63 Rel Max FI [1]	CC50 [1] [µM]	also measured
CCC(CC)(NC(=O)c1cccc(OC)c1C)C(=O)c1ccc(F)c(C)c1 [Example 50]	0.00	> 33	
CCc1c(OC)cccc1C(=O)NC1(C(=O)c2cc(C)cc(C)c2)CCCCC1 [Example 143]	0.91	1.5	LC50 (half-maximal ligand concentration for reporter induction) [2]: 2.81 µM; AA_3T3 Rel Max FI [2]: 0.59; Fold Induction Average, AA_3T3 Assay (33 μM) [2]: 1929
COc1cccc(C(=O)NC2(C(=O)c3ccc(F)c(C)c3)CCCCC2)c1C [Example 18]	0.53	3.27	
COc1cccc(C(=O)NC2(C(=O)c3cc(C)cc(C)c3)CCC2)c1C [Example 14]	0.89	~10	
COc1ccccc1C(=O)C1(NC(=O)c2cccc(OC)c2C)CCCCCC1 [Example 70]	0.66	3.36	LC50 (half-maximal ligand concentration for reporter induction) [2]: 3.21 µM; AA_3T3 Rel Max FI [2]: 0.48; Fold Induction Average, AA_3T3 Assay (33 μM) [2]: 1878
COc1cccc(C(=O)NC2(C(=O)c3ccccc3)CCCC2)c1 [Example 141]	0.00	> 33	Fold Induction Average, AA_3T3 Assay (33 μM) [2]: 1
COc1cccc(C(=O)NC2(C(=O)c3cc(C)cc(C)c3)CCCC2)c1C [Example 10]	0.86	1.91	
COc1cccc(C(=O)NC2(C(=O)c3cc(C)cc(C)c3)CCSCC2)c1C [Example 28]	0.85	1.8	
COc1cc(C(=O)C2(NC(=O)c3cccc(OC)c3C)CCCCC2)cc(OC)c1C [Example 66]	0.76	14.5	
COc1cccc(C(=O)C(C)(C)NC(=O)c2ccccc2OC)c1 [Example 117]			Fold Induction Average, 27-63 Assay (33 μM) [1]: 1
CCC(CC)(NC(=O)c1cccc(OC)c1C)C(=O)c1cc(C)cc(C)c1 [Example 51]	0.54	6.23	
COc1cccc(C(=O)NC2(C(=O)c3cc(F)c(F)c(OC)c3)CCCC2)c1C [Example 67]	0.77	6.59	
CCC(CC)(NC(=O)c1cccc(OC)c1C)C(=O)c1ccc(F)cc1 [Example 38]	0.00	> 33	
COc1cccc(C(=O)NC2(C(=O)c3ccc(C)cc3)CCCCC2)c1C [Example 15]	0.87	6.18	
COC(=O)CN1CCCC(NC(=O)c2cccc(OC)c2C)(C(=O)c2cc(C)cc(C)c2)C1 (racemic) [Example 156]	0.00	> 33	Fold Induction Average, 27-63 Assay (33 μM) [1]: 3
CCCCC(=O)C1(NC(=O)c2cccc(OC)c2C)CCCCC1 [Example 120]	0.65	9.05	
COc1ccccc1C(=O)C1(NC(=O)c2cccc(OC)c2C)CCCC1 [Example 40]	0.67	6.61	
COc1cccc(C(=O)NC(C)(C(=O)c2ccccc2C)C(C)C)c1C (centres unmarked) [Example 63]	0.68	27.2	
COc1cccc(C(=O)NC(C)(Cc2ccccc2)C(=O)c2cc(C)cc(C)c2)c1C (centres unmarked) [Example 12]	0.00	> 33	
COc1cccc(C(=O)NC2(C(=O)c3cccc(C)c3)CCSCC2)c1C [Example 26]	0.83	11	
COc1cccc(C(=O)NC2(C(=O)c3cc(C)cc(C)c3)CCC3(CC2)OCCO3)c1C [Example 29]	0.00	> 33	
CCC(CC)(NC(=O)c1cccc(OC)c1C)C(=O)c1cccc(OC)c1 [Example 49]	0.00	> 33	
COc1cccc(C(=O)NC2(C(=O)c3ccc(F)cc3)CCCCC2)c1C [Example 60]	0.35	~9	
COc1cccc(C(=O)NC2(C(=O)c3ccccc3C)CCCCC2)c1C [Example 44]	0.07	> 33	
COc1cccc(C(=O)C(C)(CC(C)C)NC(=O)c2cccc(OC)c2C)c1 (centres unmarked) [Example 53]	0.00	> 33	
CCC(CC)(NC(=O)c1cccc(OC)c1C)C(=O)c1cccc(C)c1 [Example 48]	0.11	> 33	
COc1cccc(C(=O)NC2(C(=O)c3cc(C)cc(C)c3)CC2)c1C [Example 13]	0.09	> 33	

SMILES	27-63 Rel Max FI [1]	CC50 [1] [µM]	also measured
COc1cccc(C(=O)NC(C)(CC(C)C)C(=O)c2cccc(C)c2)c1C (centres unmarked) [Example 52]	0.04	~12	
COc1cccc(C(=O)NC(C)(C)C(=O)c2ccccc2)c1C [Example 76]	0.00	> 33	
COc1ccccc1C(=O)C(C)(NC(=O)c1cccc(OC)c1C)C(C)C (centres unmarked) [Example 30]	0.03	> 33	
COc1cccc(C(=O)NC(C)(C(=O)c2cc(C)cc(C)c2)C(C)C)c1C (centres unmarked) [Example 20]	0.71	2.56	
COc1cccc(C(=O)NC(C)(CC(C)C)C(=O)c2cc(C)cc(C)c2)c1C (centres unmarked) [Example 55]	0.62	3.85	
COc1cccc(C(=O)NC2(C(=O)c3ccccc3)CCCCC2)c1C [Example 69]	0.84	14.4	
CCc1c(OC)cccc1C(=O)NC1(C(=O)c2ccccc2)CCCC1 [Example 21]	0.09	> 33	
COc1cccc(C(=O)NC2(C(=O)c3cccc(C)c3)CCCCC2)c1C [Example 7]	0.77	3.52	
CCC(CC)(NC(=O)c1cccc(OC)c1C)C(=O)c1ccccc1OC [Example 37]	0.81	~18	
COc1ccc(C(=O)C2(NC(=O)c3cccc(OC)c3C)CCCCC2)c(OC)n1 [Example 64]	0.82	3.12	
COc1cc(C(=O)C2(NC(=O)c3cccc(OC)c3C)CCCC2)cc(OC)c1C [Example 65]	0.28	> 20	
COc1cccc(C(=O)NC(C)(C(=O)c2ccc(C)cc2)C(C)C)c1C (centres unmarked) [Example 33]	0.00	> 33	
COc1cccc(C(=O)NC(C)(C(=O)c2ccccc2)C(C)C)c1C (centres unmarked) [Example 34]	0.00	> 33	
COc1cccc(C(=O)NC2(C(=O)c3cccc(C)c3)CCOCC2)c1C [Example 25]	0.00	> 33	
COc1cccc(C(=O)C2(NC(=O)c3cccc(OC)c3C)CCCCC2)c1 [Example 4]	1.06	4.28	
COc1ccc(C(=O)C2(NC(=O)c3cccc(OC)c3C)CCCCC2)cc1 [Example 46]	0.00	> 33	fold induction at 33 µM [1]: 5
COc1cccc(C(=O)NC2(C(=O)c3ccc(F)c(C)c3)CCCC2)c1C [Example 17]	0.40	~5.5	
COc1cccc(C(=O)NC2(C(=O)c3cc(C)cc(C)c3)CCS(=O)(=O)CC2)c1C [Example 62]	0.04	~30	fold induction at 33 µM [1]: 224
COc1cccc(C(=O)NC(C)(C(=O)c2cccc(C)c2)C(C)C)c1C (centres unmarked) [Example 31]	0.61	~15	
COc1cccc(C(=O)NC2(C(=O)c3cc(F)c(F)c(OC)c3)CCCCC2)c1C [Example 68]	0.98	3.7	
COc1cccc(C(=O)NC2(C(=O)c3cc(C)cc(C)c3)CCCCC2)c1C [Example 11]	0.97	1.43	
COc1cccc(C(=O)NC2(C(=O)c3cc(C)cc(C)c3)CCOCC2)c1C [Example 27]	0.96	10	fold induction at 33 µM [1]: 2740
COc1ccccc1C(=O)C1(NC(=O)c2cccc(OC)c2C)CCCCC1 [Example 45]	0.71	1.03	
COc1cccc(C(=O)C(C)(NC(=O)c2cccc(OC)c2C)C(C)C)c1 (centres unmarked) [Example 32]	0.01	> 33	
COc1cccc(C(=O)NC2(C(=O)c3ccc(F)cc3)CCCC2)c1C [Example 42]	0.01	> 33	
CCc1c(C(=O)NC2(C(=O)c3ccccc3)CCCC2)ccc2c1OCCO2 [Example 22]	0.60	10.8	
